What all share (type): cell-based
The target of assay [1] is T1, GIP receptor (Homo sapiens, UniProt P48546).
T1 construct: expressed in transfected cells; host or cells: HEK293
T1 sequence (P48546 22-466): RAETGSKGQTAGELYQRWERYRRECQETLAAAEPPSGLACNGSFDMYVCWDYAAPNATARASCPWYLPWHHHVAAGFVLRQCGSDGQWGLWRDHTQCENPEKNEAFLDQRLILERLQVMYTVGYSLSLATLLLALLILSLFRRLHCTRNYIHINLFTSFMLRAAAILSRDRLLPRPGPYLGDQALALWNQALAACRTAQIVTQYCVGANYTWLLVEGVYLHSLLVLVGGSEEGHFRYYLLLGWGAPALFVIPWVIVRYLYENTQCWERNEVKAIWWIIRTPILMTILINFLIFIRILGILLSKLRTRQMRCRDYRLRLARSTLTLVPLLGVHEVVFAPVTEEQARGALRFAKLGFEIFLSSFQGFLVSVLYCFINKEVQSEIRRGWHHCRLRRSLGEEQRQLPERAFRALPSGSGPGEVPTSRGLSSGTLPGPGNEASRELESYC
Description: cAMP induction, firefly luciferase-based reporter assay in HEK293 cells co-transfected with GIP receptor. Conditions: EC50 at GIP Receptor. The source says: (§1) This example describes an exemplary method of testing the biological activity of the peptides of the present disclosures, which method involves assaying cAMP synthesis.
(In general: A reporter such as luciferase makes a cellular process visible.)

For assay [2], the target named is T2, glucagon receptor (Homo sapiens, UniProt P47871).
T2 construct: expressed in transfected cells; host or cells: HEK293
T2 sequence (P47871 26-477): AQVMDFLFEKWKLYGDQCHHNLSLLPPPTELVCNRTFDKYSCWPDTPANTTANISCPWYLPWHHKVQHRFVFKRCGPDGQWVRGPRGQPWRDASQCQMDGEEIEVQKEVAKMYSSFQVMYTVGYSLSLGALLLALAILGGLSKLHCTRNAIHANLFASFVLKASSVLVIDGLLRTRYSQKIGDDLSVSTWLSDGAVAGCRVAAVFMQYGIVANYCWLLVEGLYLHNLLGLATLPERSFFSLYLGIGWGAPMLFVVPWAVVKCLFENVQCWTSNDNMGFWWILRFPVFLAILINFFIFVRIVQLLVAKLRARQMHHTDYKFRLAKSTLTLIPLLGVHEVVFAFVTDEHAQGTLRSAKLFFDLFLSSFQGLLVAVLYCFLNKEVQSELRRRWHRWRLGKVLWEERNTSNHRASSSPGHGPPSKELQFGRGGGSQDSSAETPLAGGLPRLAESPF
The assay can be described thus: cAMP induction, firefly luciferase-based reporter assay in HEK293 cells co-transfected with glucagon receptor. The note with it: for EC50: EC50 at Glucagon Receptor.
Description: as §1

Assay [3] deals with T3, GLP-1 receptor (Homo sapiens, UniProt P43220).
T3 construct: expressed in transfected cells; host or cells: HEK293
T3 sequence (P43220 24-463): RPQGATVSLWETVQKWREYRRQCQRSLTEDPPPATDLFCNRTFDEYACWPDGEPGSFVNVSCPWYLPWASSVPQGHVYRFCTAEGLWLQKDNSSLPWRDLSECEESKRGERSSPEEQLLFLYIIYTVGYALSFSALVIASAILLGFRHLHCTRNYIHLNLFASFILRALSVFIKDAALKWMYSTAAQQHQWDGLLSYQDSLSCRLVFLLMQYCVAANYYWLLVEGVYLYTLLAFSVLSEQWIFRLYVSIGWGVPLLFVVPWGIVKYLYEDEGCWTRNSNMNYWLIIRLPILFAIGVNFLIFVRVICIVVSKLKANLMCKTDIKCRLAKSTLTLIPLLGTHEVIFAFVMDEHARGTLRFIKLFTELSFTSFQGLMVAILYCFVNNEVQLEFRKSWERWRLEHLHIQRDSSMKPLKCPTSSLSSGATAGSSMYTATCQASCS
Description: cAMP induction, firefly luciferase-based reporter assay in HEK293 cells co-transfected with GLP-1 receptor. Conditions: EC50 at GLP-1 Receptor.
Description: as §1

Where [4] appears, read: Table 4, analogs of SEQ ID NO: 43 varying at position 3.
Where [5] appears, read: Table 5, analogs of SEQ ID NO: 10.
[6] abbreviates: Table 3, analogs of SEQ ID NO: 18 varying at position 3.

Each structure is given as a SMILES string. *1 amine or outer side, *2 acyl side, *3 side chain or, on linkers, in order; H or OH if unused. Where a SMILES comes first, the peptide text is derived from it. Side-chain parts run from the residue outwards. [ ]: non-standard residue; d: D form. The star is where a group is joined. γGlu = O=C(O)[C@H](CCC(=O)[*:2])N[*:1]; Palmitoyl = CCCCCCCCCCCCCCCC(=O)*; hSer = N[C@@H](CCO)C(=O)O; Nva = CCC[C@H](N)C(=O)O; Aib = CC(C)(N)C(=O)O

A word on the EC50: it is the concentration giving half of the maximal effect. A higher EC50 goes with weaker potency. For `CCCCCCCCCCCCCCCC(=O)N[C@@H](CCC(=O)NCCCC[C@H](NC(=O)[C@H](CC(=O)O)NC(=O)[C@H](CO)NC(=O)[C@@H](NC(=O)[C@H](Cc1ccccc1)NC(=O)[C@@H](NC(=O)CNC(=O)[C@H](CCC)NC(=O)C(C)(C)NC(=O)[C@@H](N)Cc1c[nH]cn1)[C@@H](C)O)[C@@H](C)O)C(=O)N[C@@H](CO)C(=O)N[C@@H](CCCCN)C(=O)N[C@@H](Cc1ccc(O)cc1)C(=O)N[C@@H](CC(C)C)C(=O)N[C@@H](CC(=O)O)C(=O)N[C@@H](CCC(=O)O)C(=O)N[C@@H](CCCNC(=N)N)C(=O)N[C@@H](C)C(=O)N[C@@H](C)C(=O)N[C@@H](CCC(N)=O)C(=O)N[C@@H](CC(=O)O)C(=O)N[C@@H](Cc1ccccc1)C(=O)N[C@H](C(=O)N[C@@H](CCC(N)=O)C(=O)N[C@@H](Cc1c[nH]c2ccccc12)C(=O)N[C@@H](CC(C)C)C(=O)N[C@@H](CC(C)C)C(=O)N[C@@H](CCC(=O)O)C(=O)NCC(=O)NCC(=O)N1CCC[C@H]1C(=O)N[C@@H](CO)C(=O)N[C@@H](CO)C(=O)NCC(=O)N[C@@H](C)C(=O)N1CCC[C@H]1C(=O)N1CCC[C@H]1C(=O)N1CCC[C@H]1C(=O)N[C@@H](CO)C(N)=O)C(C)C)C(=O)O` [compound 47] (H-H[Aib][Nva]GTFTSDK([γGlu-Palmitoyl])SKYLDERAAQDFVQWLLEGGPSSGAPPPS-NH2), the concentration giving a half-maximal response (EC50) in assay [1] (setting [4]) was 0.002 nM; in assay [2] (setting [4]) it was 0.025 nM; in assay [3] (setting [4]) it was 0.003 nM.
Taken in the same sequence, the figures for `CCCCCCCCCCCCCCCC(=O)N[C@@H](CCC(=O)NCCCC[C@H](NC(=O)[C@H](CC(=O)O)NC(=O)[C@H](CO)NC(=O)[C@@H](NC(=O)[C@H](Cc1ccccc1)NC(=O)[C@@H](NC(=O)CNC(=O)[C@@H](NC(=O)C(C)(C)NC(=O)[C@@H](N)Cc1c[nH]cn1)C(C)C)[C@@H](C)O)[C@@H](C)O)C(=O)N[C@@H](CO)C(=O)N[C@@H](CCCCN)C(=O)N[C@@H](Cc1ccc(O)cc1)C(=O)N[C@@H](CC(C)C)C(=O)N[C@@H](CC(=O)O)C(=O)N[C@@H](CCC(=O)O)C(=O)N[C@@H](CCCNC(=N)N)C(=O)N[C@@H](C)C(=O)N[C@@H](C)C(=O)N[C@@H](CCC(N)=O)C(=O)N[C@@H](CC(=O)O)C(=O)N[C@@H](Cc1ccccc1)C(=O)N[C@H](C(=O)N[C@@H](CCC(N)=O)C(=O)N[C@@H](Cc1c[nH]c2ccccc12)C(=O)N[C@@H](CC(C)C)C(=O)N[C@@H](CC(C)C)C(=O)N[C@@H](CCC(=O)O)C(=O)NCC(=O)NCC(=O)N1CCC[C@H]1C(=O)N[C@@H](CO)C(=O)N[C@@H](CO)C(=O)NCC(=O)N[C@@H](C)C(=O)N1CCC[C@H]1C(=O)N1CCC[C@H]1C(=O)N1CCC[C@H]1C(=O)N[C@@H](CO)C(N)=O)C(C)C)C(=O)O` [compound 45] (H-H[Aib]VGTFTSDK([γGlu-Palmitoyl])SKYLDERAAQDFVQWLLEGGPSSGAPPPS-NH2) were 0.005 nM, 0.026 nM and 0.006 nM.
Regarding `CCCCCCCCCCCCCCCC(=O)N[C@@H](CCC(=O)NCCCC[C@H](NC(=O)[C@H](CC(=O)O)NC(=O)[C@H](CO)NC(=O)[C@@H](NC(=O)[C@H](Cc1ccccc1)NC(=O)[C@@H](NC(=O)CNC(=O)[C@H](CCC(N)=O)NC(=O)C(C)(C)NC(=O)[C@@H](N)Cc1c[nH]cn1)[C@@H](C)O)[C@@H](C)O)C(=O)N[C@@H](CO)C(=O)N[C@@H](CCCCN)C(=O)N[C@@H](Cc1ccc(O)cc1)C(=O)N[C@@H](CC(C)C)C(=O)N[C@@H](CC(=O)O)C(=O)N[C@@H](CCC(=O)O)C(=O)N[C@@H](CCCNC(=N)N)C(=O)N[C@@H](C)C(=O)N[C@@H](C)C(=O)N[C@@H](CCC(N)=O)C(=O)N[C@@H](CC(=O)O)C(=O)N[C@@H](Cc1ccccc1)C(=O)N[C@H](C(=O)N[C@@H](CCC(N)=O)C(=O)N[C@@H](Cc1c[nH]c2ccccc12)C(=O)N[C@@H](CC(C)C)C(=O)N[C@@H](CC(C)C)C(=O)N[C@@H](CC(=O)O)C(=O)N[C@H](C(=O)NCC(=O)N1CCC[C@H]1C(=O)N[C@@H](CO)C(=O)N[C@@H](CO)C(=O)NCC(=O)N[C@@H](C)C(=O)N1CCC[C@H]1C(=O)N1CCC[C@H]1C(=O)N1CCC[C@H]1C(=O)N[C@@H](CO)C(N)=O)C(C)C)C(C)C)C(=O)O` [compound 63] (H-H[Aib]QGTFTSDK([γGlu-Palmitoyl])SKYLDERAAQDFVQWLLDVGPSSGAPPPS-NH2; N-terminus assumed), the figures for the EC50 in assay [1] (setting [5]), in assay [2] (setting [5]) and in assay [3] (setting [5]) were 0.055 nM, 0.004 nM and 0.003 nM, respectively.
On to `CCCCCCCCCCCCCCCC(=O)N[C@@H](CCC(=O)NCCCC[C@H](NC(=O)[C@H](CC(=O)O)NC(=O)[C@H](CO)NC(=O)[C@@H](NC(=O)[C@H](Cc1ccccc1)NC(=O)[C@@H](NC(=O)CNC(=O)[C@H](CCCCNC(C)=O)NC(=O)C(C)(C)NC(=O)[C@@H](N)Cc1c[nH]cn1)[C@@H](C)O)[C@@H](C)O)C(=O)N[C@@H](CO)C(=O)N[C@@H](CCCCN)C(=O)N[C@@H](Cc1ccc(O)cc1)C(=O)N[C@@H](CC(C)C)C(=O)N[C@@H](CCC(=O)O)C(=O)N[C@@H](CCC(=O)O)C(=O)N[C@@H](CCCNC(=N)N)C(=O)N[C@@H](C)C(=O)N[C@@H](C)C(=O)N[C@@H](CCC(N)=O)C(=O)N[C@@H](CCC(=O)O)C(=O)N[C@@H](Cc1ccccc1)C(=O)N[C@H](C(=O)N[C@@H](CCC(N)=O)C(=O)N[C@@H](Cc1c[nH]c2ccccc12)C(=O)N[C@@H](CC(C)C)C(=O)N[C@@H](CC(C)C)C(=O)N[C@@H](CCC(=O)O)C(=O)NCC(=O)NCC(=O)N1CCC[C@H]1C(=O)N[C@@H](CO)C(=O)N[C@@H](CO)C(=O)NCC(=O)N[C@@H](C)C(=O)N1CCC[C@H]1C(=O)N1CCC[C@H]1C(=O)N1CCC[C@H]1C(=O)N[C@@H](CO)C(N)=O)C(C)C)C(=O)O` [compound 39] (H-H[Aib]K(Ac)GTFTSDK([γGlu-Palmitoyl])SKYLEERAAQEFVQWLLEGGPSSGAPPPS-NH2; N-terminus assumed), for which the EC50 in assay [1] (setting [6]) is 0.336 nM; in assay [2] (setting [6]), 0.543 nM; in assay [3] (setting [6]), 0.01 nM.
As to `CCCCCCCCCCCCCCCC(=O)N[C@@H](CCC(=O)NCCCC[C@H](NC(=O)[C@H](CC(=O)O)NC(=O)[C@H](CO)NC(=O)[C@@H](NC(=O)[C@H](Cc1ccccc1)NC(=O)[C@@H](NC(=O)CNC(=O)[C@@H](NC(=O)C(C)(C)NC(=O)[C@@H](N)Cc1c[nH]cn1)[C@@H](C)CC)[C@@H](C)O)[C@@H](C)O)C(=O)N[C@@H](CO)C(=O)N[C@@H](CCCCN)C(=O)N[C@@H](Cc1ccc(O)cc1)C(=O)N[C@@H](CC(C)C)C(=O)N[C@@H](CCC(=O)O)C(=O)N[C@@H](CCC(=O)O)C(=O)N[C@@H](CCCNC(=N)N)C(=O)N[C@@H](C)C(=O)N[C@@H](C)C(=O)N[C@@H](CCC(N)=O)C(=O)N[C@@H](CCC(=O)O)C(=O)N[C@@H](Cc1ccccc1)C(=O)N[C@H](C(=O)N[C@@H](CCC(N)=O)C(=O)N[C@@H](Cc1c[nH]c2ccccc12)C(=O)N[C@@H](CC(C)C)C(=O)N[C@@H](CC(C)C)C(=O)N[C@@H](CCC(=O)O)C(=O)NCC(=O)NCC(=O)N1CCC[C@H]1C(=O)N[C@@H](CO)C(=O)N[C@@H](CO)C(=O)NCC(=O)N[C@@H](C)C(=O)N1CCC[C@H]1C(=O)N1CCC[C@H]1C(=O)N1CCC[C@H]1C(=O)N[C@@H](CO)C(N)=O)C(C)C)C(=O)O` [compound 30] (H-H[Aib]IGTFTSDK([γGlu-Palmitoyl])SKYLEERAAQEFVQWLLEGGPSSGAPPPS-NH2), the 50% effective concentration (EC50) in assay [1] (setting [6]) stood at 0.423 nM; in assay [3] (setting [6]), 0.25 nM. For the same compound, in assay [2] (setting [6]), the “EC50 at Glucagon Receptor” value was “Not active”.
For the compound `CCCCCCCCCCCCCCCC(=O)N[C@@H](CCC(=O)NCCCC[C@H](NC(=O)[C@H](CC(=O)O)NC(=O)[C@H](CO)NC(=O)[C@@H](NC(=O)[C@H](Cc1ccccc1)NC(=O)[C@@H](NC(=O)CNC(=O)[C@H](CCO)NC(=O)C(C)(C)NC(=O)[C@@H](N)Cc1c[nH]cn1)[C@@H](C)O)[C@@H](C)O)C(=O)N[C@@H](CO)C(=O)N[C@@H](CCCCN)C(=O)N[C@@H](Cc1ccc(O)cc1)C(=O)N[C@@H](CC(C)C)C(=O)N[C@@H](CCC(=O)O)C(=O)N[C@@H](CCC(=O)O)C(=O)N[C@@H](CCCNC(=N)N)C(=O)N[C@@H](C)C(=O)N[C@@H](C)C(=O)N[C@@H](CCC(N)=O)C(=O)N[C@@H](CCC(=O)O)C(=O)N[C@@H](Cc1ccccc1)C(=O)N[C@H](C(=O)N[C@@H](CCC(N)=O)C(=O)N[C@@H](Cc1c[nH]c2ccccc12)C(=O)N[C@@H](CC(C)C)C(=O)N[C@@H](CC(C)C)C(=O)N[C@@H](CCC(=O)O)C(=O)NCC(=O)NCC(=O)N1CCC[C@H]1C(=O)N[C@@H](CO)C(=O)N[C@@H](CO)C(=O)NCC(=O)N[C@@H](C)C(=O)N1CCC[C@H]1C(=O)N1CCC[C@H]1C(=O)N1CCC[C@H]1C(=O)N[C@@H](CO)C(N)=O)C(C)C)C(=O)O` [compound 33] (H-H[Aib][hSer]GTFTSDK([γGlu-Palmitoyl])SKYLEERAAQEFVQWLLEGGPSSGAPPPS-NH2), the EC50 in assay [1] (setting [6]) was determined as 0.004 nM; in assay [2] (setting [6]) it was 0.015 nM; in assay [3] (setting [6]), 0.002 nM.

These data come from patent US9340600B2 (Indiana University Research and Technology Corporation, priority 2012, dated 2016).
